Source: patent US20060041959A1, “Control of plant growth and developmental process” (Universiteit Leiden, priority 2003, published 2006)
“Also recorded” adds a separate entry of the source.

Legend:
[1] = tested on: mutant phenotypes caused by NM—115413.1/NM—106300.1 overexpression constructs; assay: Effect of plant growth substance on NM_115413.1/NM_106300.1 overexpressing mutant phenotypes; assay type: in vivo, Arabidopsis; details: applied to overexpressing lines
Text: (§1) It is thus likely that overexpression directly or indirectly leads to changes in the levels of plant growth substances. Plant cells affected in this manner can secrete regulatory signals affecting neighboring cells or tissues. It is thus shown herein that by using plant material overexpressing one or more members of the protein family described with the sequence identifiers mentioned, the development of other plant material (including non-transformed material) can be altered towards a more organogenic/embryogenic pathway.

[2] = tested on: wild-type arabiodopsis seeds (ecotype Columbia); assay: Germination and growth of wild-type Arabidopsis seedlings on ½MS medium containing plant growth substance; assay type: in vivo
Text: as §1

Question: CC(C)[C@@H](C)[C@@H](O)[C@H](O)[C@@H](C)[C@H]1CC[C@H]2[C@@H]3COC(=O)[C@H]4C[C@H](O)[C@H](O)C[C@]4(C)[C@H]3CC[C@]12C [24-epibrassinolide] was tested. Which “effect on mutant (overexpression) phenotypes” value [1] did it give?
Answer: Its value is “able to make the mutant phenotypes more vigorous”.

Question: What about the “seedling growth phenotype after germination on medium containing the substance” value ([2]; 4 μM in ½MS medium, 14 and 28 dag, controls 0.1% DMSO, FIG. 3) of the same molecule?
Answer: Its value is “growth aberrations resembling those seen in NM—115413.1 or NM—106300.1 overexpressing seedlings can be observed”.

Question: What about the “somatic embryogenesis in wild-type plants” value ([2]; wild-type plants, FIG. 3) of the same molecule?
Answer: The value was “somatic embryogenesis was not observed”.

Question: What about the “ability to mimic the mutant phenotypes caused by overexpression constructs in wild-type plants” value ([2]; wild-type plants, compared with other plant growth substances investigated) of the same molecule?
Answer: Its value is “can mimic some of the effects of overexpression of the proteins of the invention; also recorded: most profound effect on wild-type plants”.
